Measured values published in ChEMBL document CHEMBL4680224, “Discovery of pyridine tetrahydroisoquinoline thiohydantoin derivatives with low blood-brain barrier penetration as the androgen receptor antagonists” (Eur J Med Chem, 2020).

Tests used:
LNCaP [1] = assay: Antiproliferative activity against human LNCaP cells assessed as reduction in cel viability after 72 hrs by MTT assay; type: functional, cell-based
[2] = Stability in human liver microsomes assessed as parent compound remaining at 10 uM; type: ADME, Microsome; details: read-out: Stabilty
LNCaP [3] = assay: Antitumour activity against human LNCaP cells xenografted in BALB/c nude mouse assessed as reduction in tumour weight at 45 mg/kg, po administered daily for 21 days relative to control; type: functional; details: time 21 day
[4] = Half life in human liver microsomes at 10 uM; type: ADME, Microsome
DU-145 = assay: Antiproliferative activity against human DU-145 cells assessed as reduction in cel viability after 72 hrs by MTT assay; type: functional, cell-based; details: DU-145, 72 h
[5] = Antagonist activity at GABAA receptor (unknown origin) by radioligand binding assay
LNCaP [6] = assay: Antitumour activity against human LNCaP cells xenografted in BALB/c nude mouse assessed as decrease in PSA level at 45 mg/kg, po administered daily for 21 days by ELISA relative to control; type: functional; parameters: scale not given: the % may be the effect or the level left; details: time 21 day

| SMILES | IC50 (LNCaP [1]) | IC50 (DU-145) | also measured |
| --- | --- | --- | --- |
| CNC(=O)c1ccc(N2C(=S)N(c3ccc(C#N)c(C(F)(F)F)c3)C(=O)C2(C)C)cc1F [ENZALUTAMIDE] | 16.5 µM | 49.3 µM | remaining at 10 µM [2]: 90.3%; TGI (LNCaP [3]): 68%; half-life at 10 µM [4]: 6.69 h; IC50 [5]: 2.7 µM; Activity (LNCaP [6]): 57% |
| CCCCNC(=O)c1cc2c(cc1F)CC1C(=O)N(c3cnc(C#N)c(C(F)(F)F)c3)C(=S)N1C2 (stereo unspecified) | 16.3 µM | 93.8 µM | – |
| CCOC(=O)Nc1ccc2c(c1)CCC1C(=O)N(c3cnc(C#N)c(C(F)(F)F)c3)C(=S)N21 (stereo unspecified) | 23.7 µM | > 100 µM | – |
| CNC(=O)c1ccc2c(c1)CN1C(=S)N(c3cnc(C#N)c(C(F)(F)F)c3)C(=O)C1C2 (stereo unspecified) | 36.7 µM | 83.6 µM | – |
| CC(=O)Nc1ccc2c(c1)CN1C(=S)N(c3cnc(C#N)c(C(F)(F)F)c3)C(=O)C1C2 (stereo unspecified) | 23.1 µM | 54.1 µM | – |
| CCNC(=O)c1ccc2c(c1)CN1C(=S)N(c3cnc(C#N)c(C(F)(F)F)c3)C(=O)C1C2 (stereo unspecified) | 29.3 µM | 53.2 µM | – |
| CCCC(=O)Nc1ccc2c(c1)CCC1C(=O)N(c3cnc(C#N)c(C(F)(F)F)c3)C(=S)N21 (stereo unspecified) | 32.5 µM | 89.7 µM | – |
| CC(CO)NC(=O)c1cc2c(cc1F)CC1C(=O)N(c3cnc(C#N)c(C(F)(F)F)c3)C(=S)N1C2 (stereo unspecified) | 34.2 µM | 71.3 µM | – |
| CCC(=O)Nc1cc2c(cc1F)CC1C(=O)N(c3cnc(C#N)c(C(F)(F)F)c3)C(=S)N1C2 (stereo unspecified) | 27.7 µM | > 100 µM | – |
| CS(=O)(=O)Nc1ccc2c(c1)CCC1C(=O)N(c3cnc(C#N)c(C(F)(F)F)c3)C(=S)N21 (stereo unspecified) | > 100 µM | > 100 µM | – |
| N#Cc1ncc(N2C(=O)C3Cc4cc(F)c(N)cc4CN3C2=S)cc1C(F)(F)F (stereo unspecified) | 32.1 µM | > 100 µM | – |
| N#Cc1ncc(N2C(=O)C3Cc4ccc(C(=O)NC5CCCCC5)cc4CN3C2=S)cc1C(F)(F)F (stereo unspecified) | 72.3 µM | 92.4 µM | – |
| CCCCOc1ccc2c(c1)CN1C(=S)N(c3cnc(C#N)c(C(F)(F)F)c3)C(=O)C1C2 (stereo unspecified) | 20 µM | > 100 µM | – |
| CCCNC(=O)c1ccc2c(c1)CN1C(=S)N(c3cnc(C#N)c(C(F)(F)F)c3)C(=O)C1C2 (stereo unspecified) | 18.1 µM | 90.4 µM | – |
| CCCC(=O)Nc1cc2c(cc1F)CC1C(=O)N(c3cnc(C#N)c(C(F)(F)F)c3)C(=S)N1C2 (stereo unspecified) | 27.9 µM | > 100 µM | – |
| CC(CO)NC(=O)c1ccc2c(c1)CN1C(=S)N(c3cnc(C#N)c(C(F)(F)F)c3)C(=O)C1C2 (stereo unspecified) | 44.9 µM | 88 µM | – |
| CCCCS(=O)(=O)Nc1ccc2c(c1)CN1C(=S)N(c3cnc(C#N)c(C(F)(F)F)c3)C(=O)C1C2 (stereo unspecified) | 84.1 µM | 84.4 µM | – |
| N#Cc1ncc(N2C(=O)C3Cc4cc(F)c(C(=O)NC5CCCCC5)cc4CN3C2=S)cc1C(F)(F)F (stereo unspecified) | 84.7 µM | 67.6 µM | – |
| CC(=O)Nc1ccc2c(c1)CCC1C(=O)N(c3cnc(C#N)c(C(F)(F)F)c3)C(=S)N21 (stereo unspecified) | 41.2 µM | > 100 µM | – |
| COC(=O)c1cc2c(cc1F)CC1C(=O)N(c3cnc(C#N)c(C(F)(F)F)c3)C(=S)N1C2 (stereo unspecified) | 55.5 µM | 86.2 µM | – |
| COC(=O)c1ccc2c(c1)CN1C(=S)N(c3cnc(C#N)c(C(F)(F)F)c3)C(=O)C1C2 (stereo unspecified) | 58.4 µM | 75.5 µM | – |
| N#Cc1ncc(N2C(=O)C3Cc4cc(Br)c(O)c(Br)c4CN3C2=S)cc1C(F)(F)F (stereo unspecified) | 60.4 µM | 81.1 µM | – |
| CCOC(=O)Nc1ccc2c(c1)CN1C(=S)N(c3cnc(C#N)c(C(F)(F)F)c3)C(=O)C1C2 (stereo unspecified) | 12.2 µM | > 100 µM | – |
| CCCCS(=O)(=O)Nc1ccc2c(c1)CCC1C(=O)N(c3cnc(C#N)c(C(F)(F)F)c3)C(=S)N21 (stereo unspecified) | 54.7 µM | 90.1 µM | – |
| N#Cc1ncc(N2C(=O)C3Cc4ccc(C(=O)NCCO)cc4CN3C2=S)cc1C(F)(F)F (stereo unspecified) | 29.1 µM | 83.9 µM | – |
| COc1ccc2c(c1)CN1C(=S)N(c3cnc(C#N)c(C(F)(F)F)c3)C(=O)C1C2 (stereo unspecified) | 25.9 µM | > 100 µM | – |
| CCOc1ccc2c(c1)CN1C(=S)N(c3cnc(C#N)c(C(F)(F)F)c3)C(=O)C1C2 (stereo unspecified) | 65.9 µM | 91.7 µM | – |

| SMILES | IC50 (LNCaP [1]) | IC50 (DU-145) | also measured |
| --- | --- | --- | --- |
| CNC(=O)c1cc2c(cc1F)CC1C(=O)N(c3cnc(C#N)c(C(F)(F)F)c3)C(=S)N1C2 (stereo unspecified) | 43.8 µM | 67.4 µM | – |
| CCC(=O)Nc1ccc2c(c1)N1C(=S)N(c3cnc(C#N)c(C(F)(F)F)c3)C(=O)C1CC2 (stereo unspecified) | 48.8 µM | > 100 µM | – |
| CCOC(=O)CCCOc1ccc2c(c1)CN1C(=S)N(c3cnc(C#N)c(C(F)(F)F)c3)C(=O)C1C2 (stereo unspecified) | 17 µM | > 100 µM | – |
| CCCCNC(=O)c1ccc2c(c1)CN1C(=S)N(c3cnc(C#N)c(C(F)(F)F)c3)C(=O)C1C2 (stereo unspecified) | 11.6 µM | 89.4 µM | – |
| N#Cc1ncc(N2C(=O)C3Cc4ccc([N+](=O)[O-])cc4CN3C2=S)cc1C(F)(F)F (stereo unspecified) | 75.7 µM | > 100 µM | – |
| CC(O)CNC(=O)c1cc2c(cc1F)CC1C(=O)N(c3cnc(C#N)c(C(F)(F)F)c3)C(=S)N1C2 (stereo unspecified) | 47.5 µM | 72.2 µM | – |
| CCC(=O)Nc1ccc2c(c1)CN1C(=S)N(c3cnc(C#N)c(C(F)(F)F)c3)C(=O)C1C2 (stereo unspecified) | 22.9 µM | 81.1 µM | – |
| N#Cc1ncc(N2C(=O)C3Cc4ccc(C(=O)O)cc4CN3C2=S)cc1C(F)(F)F (stereo unspecified) | > 100 µM | > 100 µM | – |
| N#Cc1ncc(N2C(=O)C3Cc4ccccc4CN3C2=S)cc1C(F)(F)F (stereo unspecified) | 21.6 µM | > 100 µM | – |
| CCNC(=O)c1cc2c(cc1F)CC1C(=O)N(c3cnc(C#N)c(C(F)(F)F)c3)C(=S)N1C2 (stereo unspecified) | 32.3 µM | 91.4 µM | – |
| CCOC(=O)Nc1ccc2c(c1)N1C(=S)N(c3cnc(C#N)c(C(F)(F)F)c3)C(=O)C1CC2 (stereo unspecified) | 35.7 µM | 90.3 µM | – |
| CCCCS(=O)(=O)Nc1ccc2c(c1)N1C(=S)N(c3cnc(C#N)c(C(F)(F)F)c3)C(=O)C1CC2 (stereo unspecified) | 48.7 µM | 83.9 µM | – |
| CCCCS(=O)(=O)Nc1cc2c(cc1F)CC1C(=O)N(c3cnc(C#N)c(C(F)(F)F)c3)C(=S)N1C2 (stereo unspecified) | 102 µM | > 100 µM | – |
| CCCNC(=O)c1cc2c(cc1F)CC1C(=O)N(c3cnc(C#N)c(C(F)(F)F)c3)C(=S)N1C2 (stereo unspecified) | 20.1 µM | 92.5 µM | – |
| CCCC(=O)Nc1ccc2c(c1)N1C(=S)N(c3cnc(C#N)c(C(F)(F)F)c3)C(=O)C1CC2 (stereo unspecified) | 46 µM | 97.8 µM | – |
| CCC(=O)Nc1ccc2c(c1)CCC1C(=O)N(c3cnc(C#N)c(C(F)(F)F)c3)C(=S)N21 (stereo unspecified) | 39.9 µM | > 100 µM | – |
| CS(=O)(=O)Nc1ccc2c(c1)N1C(=S)N(c3cnc(C#N)c(C(F)(F)F)c3)C(=O)C1CC2 (stereo unspecified) | > 100 µM | > 100 µM | – |
| CS(=O)(=O)Nc1cc2c(cc1F)CC1C(=O)N(c3cnc(C#N)c(C(F)(F)F)c3)C(=S)N1C2 (stereo unspecified) | 79 µM | > 100 µM | – |
| COc1c(Br)cc2c(c1Br)CN1C(=S)N(c3cnc(C#N)c(C(F)(F)F)c3)C(=O)C1C2 (stereo unspecified) | 85.9 µM | 96.3 µM | – |
| CCCC(=O)Nc1ccc2c(c1)CN1C(=S)N(c3cnc(C#N)c(C(F)(F)F)c3)C(=O)C1C2 (stereo unspecified) | 34.2 µM | > 100 µM | – |
| CC(=O)Nc1ccc2c(c1)N1C(=S)N(c3cnc(C#N)c(C(F)(F)F)c3)C(=O)C1CC2 (stereo unspecified) | 89.7 µM | > 100 µM | – |
| N#Cc1ncc(N2C(=O)C3Cc4cc(F)c([N+](=O)[O-])cc4CN3C2=S)cc1C(F)(F)F (stereo unspecified) | 29 µM | 83.4 µM | – |
| N#Cc1ncc(N2C(=O)C3Cc4ccc(N)cc4CN3C2=S)cc1C(F)(F)F (stereo unspecified) | 44.7 µM | > 100 µM | – |
| CC(=O)Nc1cc2c(cc1F)CC1C(=O)N(c3cnc(C#N)c(C(F)(F)F)c3)C(=S)N1C2 (stereo unspecified) | 28.3 µM | > 100 µM | – |
| N#Cc1ncc(N2C(=O)C3Cc4cc(F)c(C(=O)O)cc4CN3C2=S)cc1C(F)(F)F (stereo unspecified) | > 100 µM | > 100 µM | – |
| CS(=O)(=O)Nc1ccc2c(c1)CN1C(=S)N(c3cnc(C#N)c(C(F)(F)F)c3)C(=O)C1C2 (stereo unspecified) | 90.2 µM | > 100 µM | – |
